Assay results taken from patent publication US12466807B2, “Salt and crystal form of a FAK inhibitor” (Amplia Therapeutics Limited, priority 2019, dated 2025).

Test: 7-day stability study
Format: physicochemical
Settings: for XRPD / HPLC Purity: 1 week; for HPLC Purity: input purity 99.8%
Method: 7-day stability tests were carried out as follows: • Approximately 10-20 mg of Formula I L-tartrate Pattern 1 was placed at either 40° C./75% RH, 80° C. or under ambient light and temperature for 1 week. The resulting solids were analyzed by XRPD to assess the physical stability and HPLC to assess the chemical stability.

Structure (SMILES): COc1cc(C2CCN(C)CC2)ccc1Nc1ncc(C(F)(F)F)c(CCc2ccccc2CC(N)=O)n1 [L-Tartrate]
- XRPD (40° C./75% RH): Pattern 1
- HPLC Purity (40° C./75% RH): 99.6 % Area
- XRPD (80° C.): Pattern 1
- HPLC Purity (80° C.): 99.3 % Area
- XRPD (Ambient temperature and light): Pattern 1
- HPLC Purity (Ambient temperature and light): 99.5 % Area
- Stability under accelerated conditions (one week, ambient temperature and light, 40° C./75% RH and 80° C.): considered stable
